Test results published in ChEMBL document CHEMBL5257156, “Improving binding entropy by higher ligand symmetry? - A case study with human matriptase” (RSC Med Chem, 2023).
pKd, pKi: −log10 of the molar value.

Key:
[1] = biological target: T1, Suppressor of tumorigenicity 14 protein (Homo sapiens) (UniProt Q9Y5Y6); experiment: Binding affinity to recombinant hexahistidine tagged human MT-SP1 (596 to 855 residues) expressed in Escherichia coli BL21 gold (DE3) cells assessed as free energy change by ITC analysis
T1 sequence (whole entry): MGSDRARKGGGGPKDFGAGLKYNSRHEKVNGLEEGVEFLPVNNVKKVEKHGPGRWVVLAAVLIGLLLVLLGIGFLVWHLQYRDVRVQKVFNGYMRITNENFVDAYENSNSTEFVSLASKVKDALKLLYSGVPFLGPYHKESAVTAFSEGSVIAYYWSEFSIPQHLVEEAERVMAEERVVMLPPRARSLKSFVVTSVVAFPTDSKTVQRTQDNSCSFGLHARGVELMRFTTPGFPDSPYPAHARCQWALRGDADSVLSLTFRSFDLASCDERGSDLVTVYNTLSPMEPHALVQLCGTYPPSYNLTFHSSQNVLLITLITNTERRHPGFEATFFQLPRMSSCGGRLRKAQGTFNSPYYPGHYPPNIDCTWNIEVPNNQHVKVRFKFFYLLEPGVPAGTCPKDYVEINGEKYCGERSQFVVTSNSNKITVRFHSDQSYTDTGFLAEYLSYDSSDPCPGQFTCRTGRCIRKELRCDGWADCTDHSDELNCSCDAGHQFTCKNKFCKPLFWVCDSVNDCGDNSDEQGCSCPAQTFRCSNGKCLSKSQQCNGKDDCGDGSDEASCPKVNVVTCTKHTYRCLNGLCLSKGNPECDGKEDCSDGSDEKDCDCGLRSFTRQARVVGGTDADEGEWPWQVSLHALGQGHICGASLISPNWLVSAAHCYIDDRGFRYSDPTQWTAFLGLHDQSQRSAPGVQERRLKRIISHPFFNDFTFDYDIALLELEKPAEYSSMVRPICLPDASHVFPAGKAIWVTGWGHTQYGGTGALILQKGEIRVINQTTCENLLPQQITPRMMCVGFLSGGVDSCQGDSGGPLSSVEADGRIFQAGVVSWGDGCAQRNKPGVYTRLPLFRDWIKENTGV

[2] = biological target: T1, Suppressor of tumorigenicity 14 protein (Homo sapiens); experiment: Binding affinity to recombinant hexahistidine tagged human MT-SP1 (596 to 855 residues) expressed in Escherichia coli BL21 gold (DE3) cells assessed as change in enthalpy by ITC analysis
[3] = biological target: T1, Suppressor of tumorigenicity 14 protein (Homo sapiens); experiment: Binding affinity to recombinant hexahistidine tagged human MT-SP1 (596 to 855 residues) expressed in Escherichia coli BL21 gold (DE3) cells assessed as change in entropy by ITC analysis
[4] = biological target: T2, Suppressor of tumorigenicity 14 protein (Homo sapiens, UniProt Q9Y5Y6); experiment: Inhibition of recombinant hexahistidine tagged human MT-SP1 (596 to 855 residues) expressed in Escherichia coli BL21 gold (DE3) cells using Boc-Leu-Arg-Arg-AMC as substrate measured every 30 secs for 10 mins by fluorescence based assay
T2 sequence (Q9Y5Y6 whole entry): T1 sequence (whole entry)

[5] = biological target: T2, Suppressor of tumorigenicity 14 protein; experiment: Binding affinity to recombinant hexahistidine tagged human MT-SP1 (596 to 855 residues) expressed in Escherichia coli BL21 gold (DE3) cells […] by ITC analysis
[6] = biological target: T2, Suppressor of tumorigenicity 14 protein; experiment: Inhibition of human matriptase using Mes-D-Pro-Arg-AMC.2TFA as substrate incubated for 10 mins by fluorescence based assay

deltaG [1]	deltaH [2]	-TdeltaS [3]	pKi [4]	pKd [5]	pKi [6]	SMILES
-32.1 kJ/mol	8.5 kJ/mol	-40.6 kJ/mol	6.11	5.60		N=C(N)c1ccc(Oc2cc(Oc3ccc(CN)cc3)cc(Oc3ccc(CN)cc3)c2)cc1
-33.4 kJ/mol	-14 kJ/mol	-19.4 kJ/mol		5.84	5.37	N=C(N)c1ccc(CCNC(=O)CC(=O)NCCc2ccc(C(=N)N)cc2)cc1
-28.9 kJ/mol	5.2 kJ/mol	-34.1 kJ/mol	4.74	4.99		NCc1ccc(Oc2cc(Oc3ccc(CN)cc3)cc(Oc3ccc(CN)cc3)c2)cc1
-36.9 kJ/mol	-6.8 kJ/mol	-30.1 kJ/mol		6.41	6.41	N=C(N)c1ccc(CCNC(=O)C(C(=O)NCCc2ccc(C(=N)N)cc2)C(=O)NCc2ccc(C(=N)N)cc2)cc1 (stereo not given)
